Experimental data published in patent US6162810A, “Inadone and tetralone compounds for inhibiting cell proliferation” (The Regents of the University of California, priority 1998, dated 2000).
Entries after “also recorded” stand apart in the source; their conditions may differ.

Columns and labels:
MCF-7/ADR cells = assay: Cell death of stationary phase MCF-7/ADR cells (FACS); format: cell-based, human; details: noncycling MCF-7/ADR cells
tubulin [1] = assay: Inhibition of tubulin assembly; format: biochemical, bovine; details: 10 μM tubulin, 20 min incubation, 30° C.; read-out: GI50 inhibitory concentration (tubulin assembly)
Description: (§1) To evaluate the effects of the TB compounds of the invention on tubulin, bovine brain tubulin (2.2 mg/ml) was incubated in PEM80 (80 mM K-PIPES, 1 mM MgCl2, 1 mM EGTA) containing 10% glycerol and 2 mM GTP for 30 minutes at 37° C. in the presence or absence of 20 μg/ml nocodazole, 1 mM paclitaxel, or TB compound no. IK-178 at various concentrations. Tubulin polymer was resolved from monomer by sedimentation through a cushion of 60% glycerol in PEM80 at 70,000 rpm for 30 min at 37° C. in a Beckman TLA100 rotor. A fraction of the supernatant was removed for analysis, the cushion washed and then aspirated, and the pellet resuspended in SDS-PAGE sample buffer. Equal proportions of the supernatant and the pellet were then resolved by SDS-PAGE and tubulin visualized by staining with Coomassie blue.
(§2) The quantitative assessment of drug inhibition of tubulin polymerization and evaluation of inhibition of [^3 H]colchicine binding to tubulin were then performed. […] Samples were placed on ice and GTP (0.4 mM) was added. Reaction mixtures were transferred to 0° C. cuvettes in Gilford 250 spectrophotometers, baselines were establishes/d, and the temperature was jumped to 30° C. with electronic temperature controllers (about 60 sec). The IC^50 was defined as the drug concentration required to inhibit extent of assembly after a 20 min incubation. […]

[2] = tested on: tubulin (colchicine-binding site); assay: Inhibition of [3H]colchicine binding to tubulin; design: species or system bovine; details: 5 μM compound, 5 μM [3H]colchicine, 1 μM tubulin, n=4
Description: as §1, §2

[3] = tested on: HL-60/ADR and MDF-7/ADR cells; assay: MTT assay, visual comparison of cells with and without MDR (FIGS. 1 and 2); format: cell-based, human; details: 3 days
HL-60 = assay: Growth inhibition of HL-60 (wild type); format: cell-based; details: Homo sapiens, ±1 SD, n>5
tubulin [4] = assay: Inhibition of [3H]vinblastine binding to tubulin; design: species or system bovine; details: single experiment
Description: The TB compounds of the invention (as represented by TB compound IK-178), are nearly as potent as the strong tubulin assembly inhibitor, combretastatin A-4 (CS-A4). In particular, the GI^50 inhibitory concentration of CS-A4 was 1.2±0.03 μM (n=4), while that of TB compound IK-178 was 1.7±0.1 μM (n=3).

[5] = tested on: caspase-3 in HL-60/ADR cells; assay: Caspase-3 activation in HL-60/ADR cells; format: cell-based, human; details: 10 nM
MDA-MB-321 = assay: Growth inhibition of MDA-MB-321 (wild type); format: cell-based; details: Homo sapiens, ±1 SD, n>5
[6] = tested on: caspase-3 in MCF-7/ADR cells; assay: Caspase-3 activation in noncycling MCF-7/ADR cells; format: cell-based, human
Description: Briefly, cell extracts were prepared from 5×10^6 cells in 100 μl of a lysis buffer (25 mM TrisHCl, pH 7.5, 150 mM KCl, 5 mM EDNA, 1% Nonidet P-40, 0.5% sodium deoxycholate, and 0.1% SDS) and maintained on ice for 10 min, followed by centrifugation at 14,000×g for 5 min at 4° C. The resulting supernatants were collected and frozen at -80° C. or used immediately. Lysates (20 μl, 5-10 μg of total protein) were mixed with 30 μl of assay buffer (50 mM PIPES, 50 mM KC, 5 mM EGTA, 2 mM MgCl2, 1 mM dithiothreitol (DTT), and 0.1 phenylmethanesulfonyl fluoride (PMSF)), containing 100 μM of Z-DEVD-AFC. Caspase-3-like protease activity was measured at 37° C. using a spectrofluorometric plate reader (Perkin-Elmer, LS50B) in the kinetic mode with excitation and emission wavelengths of 400 and 505 nm, respectively. Activity was measured by the release of […] from the synthetic substrate Z-DEVD-AFC (Biomol, Plymouth Meeting, Pa.).

KB-GRC-1 = assay: Growth inhibition of KB-GRC-1 (MDR); format: cell-based; details: Homo sapiens, MDR1, ±1 SD, n>5
MCF-7 = assay: Growth inhibition of MCF-7 (wild type); format: cell-based; details: Homo sapiens, MCF7, ±1 SD, n>5
human cancer cell lines = assay: Hollow fiber assay, in vivo growth inhibitory activity; design: species or system human cells in mice
Description: To screen the compounds of the invention for growth inhibitory activity, a hollow fiber assay test was performed according to the protocol established by the National Cancer Institute's Developmental Therapeutics Program.
Briefly, according to the National Cancer Institute, the hollow fiber assay is performed as follows:
For these assays, human tumor cells are cultivated in polyvinylidene fluoride (PVDF) hollow fibers, and a sample of each cell line is implanted into each of two physiologic compartments (intraperitoneal and subcutaneous) in mice. Each test mouse receives a total of 6 fibers (3 intraperitoneally and 3 subcutaneously) representing 3 distinct cancer cell lines. Three mice are treated with potential antitumor compounds at each of 2 test doses by the intraperitoneal route using a QD×4 treatment schedule. Vehicle controls consist of 6 mice receiving the compound diluent only. The fiber cultures are collected on the day following the last day of treatment. To assess anticancer effects, viable cell mass is determined for each of the cell lines using a formazan dye (MTT) conversion assay. From this, the % T/C can be calculated using the average optical density of the compound treated samples divided by the average optical density of the vehicle controls. In addition, the net increase in cell mass can be determined for each sample as a sample of fiber cultures are assessed for viable cell mass on the day of implantation into mice. Thus, the cytostatic and cytocidal capacities of the test compound can be assessed.
This represents a total of 4 experiments since each experiment contains 3 cell lines. The data are reported as % T/C for each of the 2 compound doses against each of the cell lines with separate values calculated for the intraperitoneal and subcutaneous samples.
Compounds are selected for further in vivo testing in standard subcutaneous xenograft models on the basis of several hollow fiber assay criteria. […] The intraperitoneal and subcutaneous samples are scored separately so that criteria (1) and (2) can be evaluated. […]

MCF-7 wild type cells = assay: Cell death of stationary phase MCF-7 wild type cells (FACS); format: cell-based, human; details: MCF-7 wild type (parental) cells
MV522/Q6 = assay: Growth inhibition of MV522/Q6 (MDR); format: cell-based; details: Homo sapiens, ±1 SD, n>5
CEM = assay: Growth inhibition of CEM (wild type); format: cell-based; details: Homo sapiens, CCRF-CEM, ±1 SD, n>5
CEM/VLB100 = assay: Growth inhibition of CEM/VLB100 (MDR); format: cell-based; details: Homo sapiens, ±1 SD, n>5
MES-SA/DX5 = assay: Growth inhibition of MES-SA/DX5 (MDR); format: cell-based; details: Homo sapiens, ±1 SD, n>5
[7] = tested on: normal peripheral blood lymphocytes; assay: Viability of normal peripheral blood lymphocytes; format: cell-based; details: as much as 1000-fold higher concentrations, 72 hours
MDA3-1/gp170 = assay: Growth inhibition of MDA3-1/gp170 (MDR); format: cell-based; details: Homo sapiens, MDR1, ±1 SD, n>5
caspase-3 in HL-60 cells = assay: Caspase-3 activation in HL-60 cells; format: cell-based, human
MES-SA = assay: Growth inhibition of MES-SA (wild type); format: cell-based; details: Homo sapiens, ±1 SD, n>5
HL-60/ADR cells = assay: Apoptosis of HL-60/ADR cells (FACS); format: cell-based, human
Description: FACS analysis was performed to determine the influence of the TB compounds of the invention on growth cycling of cells (the analysis was performed on harvested cells, fixed in ice-cold 70% ethanol solution, then treated with 100 μg/ml of RNAse A and stained with 50 μg/ml propidium iodide for 1 h at 37° C. DNA content of the cells was analyzed by flow cytometry (Becton Dickinson FACScalibur), and the cell cycle distribution was calculated with the program ModFit LT 2.0 (Verity Software)).
First, the stage at which the TB compounds of the invention arrest growth of HL-60 and HL-60/ADR cells was determined by FACS analysis and caspase-3 activation as described above.

MCF-7/ADR = assay: Growth inhibition of MCF-7/ADR (MDR); format: cell-based; details: Homo sapiens, NCI/ADR-RES, ±1 SD, n>5
KB-3-1 = assay: Growth inhibition of KB-3-1 (wild type); format: cell-based; details: Homo sapiens, ±1 SD, n>5
KB-GRC-1 and MV522/Q6 = assay: MTT proliferation assay of mdr1 overexpressing transfectomas; format: cell-based, human; details: 72 h
HL-60/ADR = assay: Growth inhibition of HL-60/ADR (MDR); format: cell-based; details: Homo sapiens, HL60/ADR, ±1 SD, n>5
MV522 = assay: Growth inhibition of MV522 (wild type); format: cell-based; details: Homo sapiens, ±1 SD, n>5

Compound: COc1cc2c(c(N)c1OC)C(=O)/C(=C\c1cc(C)c(O)c(C)c1)C2 [IK-178]
- cell death / apoptosis (MCF-7/ADR cells): appearance of an apoptotic sub-G0 /G1 peak
- cell death / apoptosis (MCF-7/ADR cells; listed as indanocine): die following treatment
- GI50 (tubulin [1]): 1700 ± 100 nM
- inhibition of [3H]colchicine binding [2]: 95±2%
- sensitivity with acquisition of MDR [3]: retained, and even enhanced
- GI50 (HL-60): 40 ± 3 nM
- inhibition of [3H]vinblastine binding to tubulin (tubulin [4]): Neither agent inhibited
- time of maximum caspase-3 activity [5]: 24 h
- caspase-3 activity ([5]; compared with untreated cells): time-dependent increase in caspase-3 activity
- GI50 (MDA-MB-321): 10 ± 3 nM
- activation of caspase-3 [6]: activation of caspase-3
- GI50 (KB-GRC-1): 7 ± 3 nM
- GI50 (MCF-7): 20 ± 5 nM
- TOTAL SCORE (IP + SC) (human cancer cell lines; IP + SC): 24
- IP SCORE (human cancer cell lines; intraperitoneal fibers, intraperitoneal treatment QD×4): 18
- SC SCORE (human cancer cell lines; subcutaneous fibers, intraperitoneal treatment QD×4): 6
- cell death / apoptosis (MCF-7 wild type cells): growth-arrested but did not show any apoptotic features
- GI50 (MV522/Q6): 8 ± 2 nM
- GI50 (CEM): 12 ± 2 nM
- GI50 (CEM/VLB100): 20 ± 1 nM
- GI50 (MES-SA/DX5): 12 ± 3 nM
- loss of viability [7]: no loss of viability
- GI50 (MDA3-1/gp170): 25 ± 2 nM
- caspase-3 activity (caspase-3 in HL-60 cells; HL-60 cells): only a slight increase
- caspase-3 activity relative to the level in the multidrug resistant cells (caspase-3 in HL-60 cells; HL-60 wild type vs HL-60/ADR): about a quarter
- GI50 (MES-SA): 85 ± 6 nM
- apoptosis (HL-60/ADR cells): became apoptotic; also recorded: did induce
- GI50 (MCF-7/ADR): 4 ± 1 nM
- GI50 (KB-3-1): 7 ± 2 nM
- sensitivity of transfectomas overexpressing mdr1 (KB-GRC-1 and MV522/Q6): retained complete sensitivity
- GI50 (HL-60/ADR): 2 ± 0.2 nM
- GI50 (MV522): 13 ± 3 nM
